Earlier results as cited in patent US9556167B2, “TLR-agonist-conjugated antibody recruiting molecules (TLR-ARMs)” (YALE UNIVERSITY, priority 2012, dated 2017).

Legend:
[1] = test system: advanced prostate cancer patients
[2] = test system: aggressive end-stage prostate cancer

Row | Structure (SMILES) | prolongation of life on average [1] | patients with reduced PSA levels and tumor sizes [2]
1 | CC(=O)O[C@@]12CO[C@@H]1C[C@H](O)[C@@]1(C)C(=O)[C@H](O)C3=C(C)[C@@H](OC(=O)[C@H](O)[C@@H](NC(=O)OC(C)(C)C)c4ccccc4)C[C@@](O)([C@@H](OC(=O)c4ccccc4)[C@H]21)C3(C)C [Taxotere] | 2.5 months | 
2 | CC(=O)O[C@H]1CC[C@@]2(C)C(=CC[C@@H]3[C@@H]2CC[C@]2(C)C(c4cccnc4)=CC[C@@H]32)C1 [abiraterone acetate] |  | ≤ 70 % of patients
